Experimental data from PMC6278366, “Synthesis and Evaluation of Anticancer Activities of Novel C-28 Guanidine-Functionalized Triterpene Acid Derivatives” (Molecules, 2018).

Key:
normal human fibroblasts = assay: Cytotoxicity assay (7-AAD viability, flow cytometry), normal fibroblasts; type: cell-based; conditions: Homo sapiens, Fibroblast, mean ± SE, at least three experiments in duplicate
Experimental: (§1) Cells (Jurkat, K562, U937, HeLa, HEK293 and normal Fibroblasts) were purchased from Russian Cell Culture Collection (Institute of Cytology of the Russian Academy of Sciences, Saint Petersburg, Russia) and cultured according to standard mammalian tissue culture protocols and sterile technique. Human cell lines HEK293 and HeLa were obtained from the HPA Culture Collections (Salisbury, UK). All cell lines used in the study were tested and shown to be free of mycoplasma and viral contamination.
(§2) HEK293, HeLa cell lines and fibroblasts were cultured as monolayers and maintained in Dulbecco’s modified Eagle’s medium (DMEM, Gibco BRL, Waltham, MA, USA) supplemented with 10% foetal bovine serum and 1% penicillin-streptomycin solution at 37 °C in a humidified incubator under a 5% CO2 atmosphere.
(§3) Cells were maintained in RPMI 1640 (Jurkat, K562, U937) (Gibco, Thermo Fisher Scientific, Waltham, MA, USA) supplemented with 4 mM glutamine, 10% FBS (Sigma, Burlington, MA, USA) and 100 units/mL penicillin-streptomycin (Sigma). All types of cells were grown in an atmosphere of 5% CO2 at 37 °C. The cells were subcultures at 2–3 days intervals. Adherent cells (HEK293, HeLa, fibroblasts) were suspended using trypsin/EDTA and counted after they have reached 80% confluency. Cells were then seeded in 24 well plates at 5 × 10^4 cells per well and incubated overnight. Jurkat, K562, U937 cells were subcultured at 2 day intervals with a seeding density of 1 × 10^5 cells per 24 well plates in RPMI with 10% FBS.
Viability (Live/dead) assessment was performed by staining cells with 7-AAD (7-Aminoactinomycin D) (Biolegend, San Diego, CA, USA). […] After treatment, cells were harvested, washed 1–2 times with phosphate-buffered saline (PBS) and centrifuged at 400× g for 5 min. Cell pellets were resuspended in 200 μL of flow cytometry staining buffer (PBS without Ca^2+ and Mg^2+, 2.5% FBS) and stained with 5 μL of 7-AAD staining solutionfor 15 min at room temperature in the dark. Samples were acquired on NovoCyteTM 2000 FlowCytometry System (ACEA, San Diego, CA, USA) equipped with 488 nm argon laser. Detection of 7-AAD emission was collected through a 675/30 nm filter in FL4 channel.

[1] = test system: HeLa (cervical cancer) cells; assay: Cytotoxicity assay (7-AAD viability, flow cytometry), HeLa; type: cell-based, human; conditions: Homo sapiens, HeLa, mean ± SE, at least three experiments in duplicate; viable cells
Experimental: as §1, §2, §3
(§4) Viability (Live/dead) assessment was performed by staining cells with 7-AAD (7-Aminoactinomycin D) (Biolegend, San Diego, CA, USA). Cells were treated of test compounds with six different concentrations (1, 5, 10, 15, 30 and 60 μM). After treatment, cells were harvested, washed 1–2 times with phosphate-buffered saline (PBS) and centrifuged at 400× g for 5 min. Cell pellets were resuspended in 200 μL of flow cytometry staining buffer (PBS without Ca^2+ and Mg^2+, 2.5% FBS) and stained with 5 μL of 7-AAD staining solutionfor 15 min at room temperature in the dark. Samples were acquired on NovoCyteTM 2000 FlowCytometry System (ACEA, San Diego, CA, USA) equipped with 488 nm argon laser. Detection of 7-AAD emission was collected through a 675/30 nm filter in FL4 channel.

[2] = test system: HEK293 (embryonic kidney) cells; assay: Cytotoxicity assay (7-AAD viability, flow cytometry), HEK293; type: cell-based, human; conditions: Homo sapiens, HEK293, mean ± SE, at least three experiments in duplicate; viable cells
Experimental: as §1, §2, §3, §4

[3] = test system: U937 (histiocytic lymphoma) cells; assay: Cytotoxicity assay (7-AAD viability, flow cytometry), U937; type: cell-based, human; conditions: Homo sapiens, U-937, mean ± SE, at least three experiments in duplicate; viable cells; read-out: IC50 U937
Experimental: as §1, §3, §4

[4] = test system: K562 (chronic myeloid leukemia) cells; assay: Cytotoxicity assay (7-AAD viability, flow cytometry), K562; type: cell-based, human; conditions: Homo sapiens, K562, mean ± SE, at least three experiments in duplicate; viable cells; read-out: IC50 K562
Experimental: as §1, §3, §4

[5] = test system: Jurkat (T-lymphoblastic leukemia) cells; assay: cells; type: cell-based; conditions: Homo sapiens, Jurkat, mean ± SE, at least three experiments in duplicate; viable cells; read-out: IC50 Jurkat
Experimental: as §1, §3, §4

SMILES	IC50 (normal human fibroblasts)	IC50 [1]	IC50 [2]	IC50 [3]	IC50 [4]	melting point	IC50 [5]
CC(=O)O[C@H]1CC[C@@]2(C)C(CC[C@]3(C)C2CCC2C4C(C(C)C)CC[C@]4(C(=O)NCCCN4CCN(CCCN)CC4)CC[C@]23C)C1(C)C (stereo partly drawn) [Compound 8a, 3β-N-{[3-(3-Aminopropyl)piperazinyl]propyl}-3-O-acetyl-lupane-28-amide]	7.3 ± 0.43 µM	6.1 ± 0.38 µM	5.9 ± 0.14 µM	8.2 ± 0.13 µM	3 ± 0.19 µM	119 to 121 °C	4.5 ± 0.29 µM
CC(=O)O[C@H]1CC[C@@]2(C)C(CC[C@]3(C)C2CCC2C4C(C(C)C)CC[C@]4(C(=O)NCCCCN)CC[C@]23C)C1(C)C (stereo partly drawn) [Compound 6, 3β-N-(4-Aminobuthyl)-3-O-acetyl-lupane-28-amide]	8.3 ± 0.29 µM	7.1 ± 0.18 µM	6.7 ± 0.21 µM	4.5 ± 0.43 µM	1.8 ± 0.12 µM	104 to 106 °C	7.7 ± 0.31 µM
CC(C)C1CC[C@]2(C(=O)NCCCCN)CC[C@]3(C)C(CCC4[C@@]5(C)CCC(=O)C(C)(C)C5CC[C@]43C)C12 (stereo partly drawn) [Compound 4, N-(4-Aminobuthyl)-3-oxolupane-28-amide]	3.4 ± 0.19 µM	2.8 ± 0.28 µM	2.4 ± 0.35 µM	1.7 ± 0.36 µM	1.3 ± 0.49 µM	170 to 172 °C	1.4 ± 0.41 µM
